Experimental data from PubChem BioAssay AID588643 (The Scripps Research Institute Molecular Screening Center, 2011).
Calls of active or inactive are those of the source.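 The calls were made as follows: active = phospho-ERK protein band moved at least 30% up or down from the DMSO-only control band; inactive = the rest.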

Assays:
[1] = target: Mitogen-activated protein kinase 1 (Homo sapiens) (UniProt P28482); test: phospho-ERK1/2 protein level change, either direction, late-stage follow-up, counter-screen for KLF5 inhibitor project, cell-based, HCT116 colorectal carcinoma, chemiluminescent western blot (AID 588643); conditions: HCT116 phospho-ERK1/2 western blot, 24 h; at 10 µM; stronger effect = higher value
[2] = test system: HCT116 phospho-ERK1/2 western blot, 24 h; test: as above; conditions: measured here: phospho-ERK fold change vs DMSO; at 10 µM; stronger effect = lower value

Compound: CN(C(=O)COC(=O)/C=C/c1cccc([N+](=O)[O-])c1)C1CCS(=O)(=O)C1 (configuration not stated)
- inhibition [1]: -20% (inactive)
- fold change [2]: 1.2
